Columns and labels:
Test in all cases: Bliss excess, mean over the matrix (fraction); higher = more synergy
[1] = tested on: HCC-827 (Lung Adenocarcinoma)
Method in brief: (§1)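 Bliss excess equals the observed combination effect minus the expected value EA + EB − EA·EB, where EA and EB are the effects of each agent alone. Combination Emax is the second-highest inhibition within the matrix. Inhibition was scaled from CellTiter-Glo 2.0 luminescence, with 0 set by vehicle wells and 1 by blank wells, after 72 hours of two-drug dosing of cells plated in 1536-well plates.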

[2] = tested on: A172 (Glioblastoma)
Method in brief: as §1

[3] = tested on: JHH-6 (Hepatocellular Carcinoma)
Method in brief: as §1

[4] = tested on: RCC10RGB (Kidney Carcinoma)
Method in brief: as §1

[5] = tested on: EKVX (Non-Small Cell Lung Carcinoma)
Method in brief: as §1

[6] = tested on: HCT-116 (Colorectal Carcinoma)
Method in brief: as §1

[7] = tested on: SNG-M (Endometrial Carcinoma)
Method in brief: as §1

[8] = tested on: BICR78 (Oral Cavity Carcinoma)
Method in brief: as §1

[9] = tested on: H4 (Low Grade Glioma)
Method in brief: as §1

[10] = tested on: TYK-nu (Ovarian Carcinoma)
Method in brief: as §1

[11] = tested on: PA-TU-8902 (Pancreatic Carcinoma)
Method in brief: as §1

[12] = tested on: SKN-3 (Head and Neck Carcinoma)
Method in brief: as §1

[13] = tested on: YT (Other Blood Carcinomas)
Method in brief: as §1

[14] = tested on: NOMO-1 (Acute Myeloid Leukemia)
Method in brief: as §1

[15] = tested on: SK-MEL-1 (Melanoma)
Method in brief: as §1

[16] = tested on: SLVL (B-Cell Non-Hodgkin's Lymphoma)
Method in brief: as §1

[17] = tested on: WSU-DLCL2 (B-Cell Non-Hodgkin's Lymphoma)
Method in brief: as §1

[18] = tested on: Saos-2 (Osteosarcoma)
Method in brief: as §1

[19] = tested on: MES-SA (Other Solid Carcinomas)
Method in brief: as §1

[20] = tested on: EFM-192A (Breast Carcinoma)
Method in brief: as §1

| SMILES | Bliss excess [1] | Bliss excess [2] | Bliss excess [3] | Bliss excess [4] | Bliss excess [5] | Bliss excess [6] | Bliss excess [7] | Bliss excess [8] | Bliss excess [9] | Bliss excess [10] | Bliss excess [11] | Bliss excess [12] | Bliss excess [13] | Bliss excess [14] | Bliss excess [15] | Bliss excess [16] | Bliss excess [17] | Bliss excess [18] | Bliss excess [19] | Bliss excess [20] |
| --- | --- | --- | --- | --- | --- | --- | --- | --- | --- | --- | --- | --- | --- | --- | --- | --- | --- | --- | --- | --- |
| Cc1cc2ncnn2cc1Nc1ncc2c(n1)n(C1CCOCC1)c(=O)n2C [AZD7648] + C[C@@H]1COCCN1C2=NC(=NC(=C2)C3(CC3)[S@](=N)(=O)C)C4=C5C=CNC5=NC=C4 [AZD6738] (first compound max 10 µM, 7x7, partner max 10 µM) | 0.0048 | -0.0552 | 0.036 | 0.0076 | 0.0353 | -0.0102 | -0.0217 | -0.0018 | -0.0116 | -0.034 | 0.0186 | -0.0279 | -0.0476 | 0.0248 | -0.0388 | -0.0178 | -0.001 | -0.0169 | 0.0541 | 0.0421 |
| Cc1cc2ncnn2cc1Nc1ncc2c(n1)n(C1CCOCC1)c(=O)n2C [AZD7648] + O=C(c1cc(Cc2n[nH]c(=O)c3ccccc23)ccc1F)N1CCN(C(=O)C2CC2)CC1 [Olaparib] (first compound max 10 µM, 7x7, partner max 10 µM) | -0.028 | -0.007 | -0.0516 | -0.0619 | -0.0563 | -0.0502 | -0.0471 | -0.0056 | 0.0404 | -0.0819 | -0.0237 | -0.0199 | -0.0004 | -0.0359 | 0.0039 | -0.0027 | -0.0096 | -0.0322 | 0.06 | -0.0533 |
| COc1cccc2c1C(=O)c1c(O)c3c(c(O)c1C2=O)C[C@@](O)(C(=O)CO)C[C@@H]3O[C@H]1C[C@H](N)[C@H](O)[C@H](C)O1 [Doxorubicin] + Cc1cc2ncnn2cc1Nc1ncc2c(n1)n(C1CCOCC1)c(=O)n2C [AZD7648] (first compound max 1 µM, 7x7, partner max 10 µM) | 0.0178 | 0.0789 | 0.0476 | -0.0449 | 0.0083 | 0.0556 | 0.0194 | 0.028 | 0.0066 | 0.0591 | 0.0081 | 0.0045 | 0.0344 | 0.128 | 0.0138 | 0.0656 | 0.101 | 0.0415 | 0.0696 | -0.0216 |
| COc1cccc(OCCCN)c1-c1cc(Nc2cnc(C#N)cn2)n[nH]1 [Prexasertib] + C=CCn1c(=O)c2cnc(Nc3ccc(N4CCN(C)CC4)cc3)nc2n1-c1cccc(C(C)(C)O)n1 [AZD1775] (first compound max 1 µM, partner max 1 µM) | -0.029 | 0.142 | 0.0849 | -0.0202 | -0.024 | 0.083 | 0.0698 | 0.0619 | 0.0726 | 0.0459 | 0.0716 | 0.119 | -0.0086 | 0.0539 | -0.0084 | 0.0481 | 0.138 | 0.105 | 0.078 | 0.0662 |
| COc1cccc(OCCCN)c1-c1cc(Nc2cnc(C#N)cn2)n[nH]1 [Prexasertib] + CCc1c2c(nc3ccc(O)cc13)-c1cc3c(c(=O)n1C2)COC(=O)[C@]3(O)CC [SN-38] (first compound max 1 µM, 7x7, partner max 0.3 µM) | 0 | -0.0322 | 0.0337 | -0.081 | -0.0347 | -0.0124 | -0.0534 | -0.0236 | -0.0544 | -0.0899 | 0.049 | 0.0703 | -0.0527 | -0.0319 | -0.0593 | -0.0258 | -0.006 | -0.0064 | -0.0714 | 0.0304 |
| COc1cccc(OCCCN)c1-c1cc(Nc2cnc(C#N)cn2)n[nH]1 [Prexasertib] + CN(C)CCCOc1ccc(-c2ccc3ncc4c(c3c2)n(C2CCOCC2)c(=O)n4C)cn1 [AZD0156] (first compound max 1 µM, 7x7, partner max 1 µM) | -0.0026 | 0.0542 | 0.0349 | -0.0296 | -0.0039 | -0.0194 | 0.0305 | -0.0292 | -0.0309 | -0.0627 | 0.0068 | 0.011 | -0.0114 | -0.0154 | -0.0194 | 0.0036 | 0.0086 | -0.0869 | 0.0641 | 0.0078 |
| COc1cccc(OCCCN)c1-c1cc(Nc2cnc(C#N)cn2)n[nH]1 [Prexasertib] + C[C@@H]1COCCN1C2=NC(=NC(=C2)C3(CC3)[S@](=N)(=O)C)C4=C5C=CNC5=NC=C4 [AZD6738] (first compound max 1 µM, 7x7, partner max 10 µM) | -0.0234 | 0.0013 | 0.0207 | 0.0657 | -0.0018 | 0.103 | 0.0329 | -0.0057 | 0.0311 | -0.0604 | 0.0229 | -0.0347 | -0.0631 | -0.0147 | -0.015 | -0.0455 | 0.0096 | -0.0739 | -0.0765 | 0.0131 |
| COc1cccc(OCCCN)c1-c1cc(Nc2cnc(C#N)cn2)n[nH]1 [Prexasertib] + Cc1cc2ncnn2cc1Nc1ncc2c(n1)n(C1CCOCC1)c(=O)n2C [AZD7648] (first compound max 1 µM, 7x7, partner max 10 µM) | 0.0186 | -0.0573 | 0.0194 | -0.075 | -0.0474 | -0.0164 | -0.0284 | -0.0379 | -0.0369 | -0.072 | -0.0059 | -0.0564 | -0.0508 | -0.0388 | -0.0247 | 0.0204 | 0.0071 | -0.0591 | -0.02 | -0.0199 |
| COc1cccc(OCCCN)c1-c1cc(Nc2cnc(C#N)cn2)n[nH]1 [Prexasertib] + O=C(c1cc(Cc2n[nH]c(=O)c3ccccc23)ccc1F)N1CCN(C(=O)C2CC2)CC1 [Olaparib] (first compound max 1 µM, 7x7, partner max 10 µM) | -0.0262 | -0.0474 | 0.0128 | -0.0784 | -0.0217 | 0.0121 | -0.124 | -0.0261 | -0.0306 | -0.0934 | -0.0783 | -0.0113 | -0.0314 | -0.027 | -0.0435 | -0.0051 | -0.0311 | -0.0123 | -0.0561 | -0.0365 |
| COc1cc2c(cc1OCCCCCOc1cc3c(cc1OC)C(=O)N1C=C(C)C[C@H]1C=N3)N=C[C@@H]1CC(C)=CN1C2=O [SG3199] + O=C(c1cc(Cc2n[nH]c(=O)c3ccccc23)ccc1F)N1CCN(C(=O)C2CC2)CC1 [Olaparib] (first compound max 0.001 µM, 7x7, partner max 10 µM) | -0.0194 | 0.0064 | -0.0353 | -0.052 | -0.0424 | -0.0523 | -0.0222 | -0.0456 | -0.0406 | -0.046 | -0.0291 | -0.0276 | 0.019 | -0.0328 | -0.0239 | -0.0314 | -0.0058 | -0.0277 | 0.0626 | -0.053 |
| CCc1c2c(nc3ccc(O)cc13)-c1cc3c(c(=O)n1C2)COC(=O)[C@]3(O)CC [SN-38] + CN(C)CCCOc1ccc(-c2ccc3ncc4c(c3c2)n(C2CCOCC2)c(=O)n4C)cn1 [AZD0156] (first compound max 0.3 µM, 7x7, partner max 1 µM) | 0.0556 | 0.0443 | -0.0159 | -0.0262 | -0.0142 | 0.0669 | -0.0353 | -0.0014 | -0.0255 | -0.0182 | 0.0406 | -0.0209 | -0.0872 | 0.034 | -0.0583 | 0.0191 | 0.0312 | -0.0279 | -0.0316 | -0.0268 |
| CC(=O)Nc1cccc(-n2c(=O)n(C3CC3)c(=O)c3c(Nc4ccc(I)cc4F)n(C)c(=O)c(C)c32)c1 [Trametinib] + Cc1nc(-c2cn3c(n2)-c2ccc(-c4cnn(C(C)(C)C(N)=O)c4)cc2OCC3)n(C(C)C)n1 [Taselisib] (first compound max 1 µM, 7x7, partner max 10 µM) | 0.0731 | 0.0645 | 0.152 | -0.0186 | 0.136 | 0.124 | 0.102 | 0.0654 | 0.132 | 0.138 | 0.108 | 0.11 | -0.0043 | 0.0306 | 0.0238 | 0.134 | 0.0464 | 0.0402 | 0.062 | 0.0042 |
| CC1(C)CCC(CN2CCN(c3ccc(C(=O)NS(=O)(=O)c4ccc(NCC5CCOCC5)c([N+](=O)[O-])c4)c(Oc4cnc5[nH]ccc5c4)c3)CC2)=C(c2ccc(Cl)cc2)C1 [Venetoclax] + C1CN(CCC1(C(=O)N[C@@H](CCO)C2=CC=C(C=C2)Cl)N)C3=NC=NC4=C3C=CN4 [Capivasertib] (first compound max 1 µM, 7x7, partner max 3 µM) | -0.0278 | -0.0461 | -0.0791 | -0.0402 | -0.0306 | -0.0801 | 0.0086 | -0.0342 | -0.0366 | -0.0343 | -0.0752 | -0.033 | 0.0073 | -0.0342 | -0.0561 | -0.0284 | 0.0415 | -0.029 | -0.0597 | -0.046 |

Reference: the supplement of paper PMC11061612
